The record followed here is ChEMBL document CHEMBL3774338 (J Med Chem, 2016).

This data set is described as follows: Chemical stability assessed as oxidation mediated drug degradation at room temperature exposed to air by mass spectrometric analysis. In kind it is physicochemical.

Regarding `O=c1[nH]cnc2c(-n3cc(CCN4CCC(c5cc(F)cc(F)c5)CC4)cn3)nccc12`, the Stability result was “Unstable”.
